The values below come from PubChem BioAssay AID330 (DTP/NCI, 2004).

“And” between values parts separate entries of the source, which are not always exact repeats. Equal entries are not always repeated. Inconclusive results and toxic doses are left out.

This assay concerns P388 leukemia ip, CD2F1 mice, survival T/C. As to the kind of experiment: NCI In Vivo Anticancer Drug Screen. Data for tumor model P388 Leukemia (intraperitoneal) in CD2F1 (CDF1) mice. The note with it: endpoint: median survival time, higher = longer survival. In outline: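 Mice carrying the transplanted tumor received test compound or vehicle. Survival was recorded in each group, and the value is the treated-group measurement divided by that of the vehicle-treated control group.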

[1] abbreviates: dose: 60.0 mg/kg/injection, schedule: Q01DX005 (ip), vehicle: saline.
Setting [2] is: dose: 120.0 mg/kg/injection, schedule: Q01DX005 (ip), vehicle: saline.
[3] abbreviates: dose: 240.0 mg/kg/injection, schedule: Q01DX005 (ip), vehicle: saline.
Where [4] appears, read: dose: 50.0 mg/kg/injection, schedule: Q01DX005 (ip), vehicle: Klucel (hydroxypropylcellulose) (HPC).
Setting [5] is: dose: 100.0 mg/kg/injection, schedule: Q01DX005 (ip), vehicle: Klucel (hydroxypropylcellulose) (HPC).
[6] abbreviates: dose: 200.0 mg/kg/injection, schedule: Q01DX005 (ip), vehicle: Klucel (hydroxypropylcellulose) (HPC).
[7] abbreviates: dose: 100.0 mg/kg/injection, schedule: Q01DX001 (ip), vehicle: saline with Tween-80.
Setting [8] is: dose: 200.0 mg/kg/injection, schedule: Q01DX001 (ip), vehicle: saline with Tween-80.
Setting [9] is: dose: 400.0 mg/kg/injection, schedule: Q01DX001 (ip), vehicle: saline with Tween-80.
[10] abbreviates: dose: 25.0 mg/kg/injection, schedule: Q04DX003 (ip), vehicle: saline with Tween-80.
The mark [11] stands for this setting: dose: 50.0 mg/kg/injection, schedule: Q04DX003 (ip), vehicle: saline with Tween-80.
The mark [12] stands for this setting: dose: 60.0 mg/kg/injection, schedule: Q01DX005 (ip), vehicle: saline with Tween-80.
The mark [13] stands for this setting: dose: 120.0 mg/kg/injection, schedule: Q01DX005 (ip), vehicle: saline with Tween-80.
[14] abbreviates: dose: 50.0 mg/kg/injection, schedule: Q01DX005 (ip), vehicle: saline.
Setting [15] is: dose: 50.0 mg/kg/injection, schedule: Q01DX009 (ip), vehicle: saline with Tween-80.
Where [16] appears, read: dose: 100.0 mg/kg/injection, schedule: Q01DX009 (ip), vehicle: saline with Tween-80.
The mark [17] stands for this setting: dose: 100.0 mg/kg/injection, schedule: Q04DX003 (ip), vehicle: saline with Tween-80.
Where [18] appears, read: dose: 200.0 mg/kg/injection, schedule: Q01DX009 (ip), vehicle: saline with Tween-80.

As to `O=C1C=C(n2ccccc2=O)CCC1`, the T/C runs as follows: under setting [1], 93 % of control; under setting [2], 93 % of control; under setting [3], 102 % of control.
In the case of `Cc1ccc(C23c4ccccc4CCN2C(=O)C3N)cc1` (configuration not stated), the T/C is 99 % of control under setting [4], 106 % of control under setting [5] and 93 % of control under setting [6].
`CCOC(=O)C1CSCN1` (configuration not stated): the T/C reads like this: (dose: 25.0 mg/kg/injection, schedule: Q01DX009 (ip), vehicle: saline) 97 % of control; (dose: 50.0 mg/kg/injection, schedule: Q01DX009 (ip), vehicle: saline) 95 % of control; (dose: 100.0 mg/kg/injection, schedule: Q01DX009 (ip), vehicle: saline) 100 % of control; (dose: 200.0 mg/kg/injection, schedule: Q01DX009 (ip), vehicle: saline) 100 % of control.
Take `Cc1ccc(S(=O)(=O)NC(=O)NC(=S)c2ccco2)cc1`: the T/C was 101 % of control under setting [7], 97 % of control under setting [8] and 102 % of control under setting [9].
As for `Cc1cc(C)nc(NC(N)=NCCc2ccccc2)n1`, the T/C is, setting by setting: (dose: 12.5 mg/kg/injection, schedule: Q04DX003 (ip), vehicle: saline with Tween-80) 104 % of control; under setting [10], 100 % of control; under setting [11], 100 % of control.
Take `COC12C=CC(=O)N1CCC2` (configuration not stated): the T/C (dose: 7.5 mg/kg/injection, schedule: Q01DX005 (ip), vehicle: DMSO) is 90 % of control; the T/C (dose: 15.0 mg/kg/injection, schedule: Q01DX005 (ip), vehicle: DMSO) was 101 % of control; the T/C (dose: 30.0 mg/kg/injection, schedule: Q01DX005 (ip), vehicle: DMSO) is 101 % of control.
Consider `C1CCC2(CC1)C[Se]C2`, for which the T/C (dose: 7.5 mg/kg/injection, schedule: Q01DX009 (ip), vehicle: saline with Tween-80) is 108 % of control; the T/C (dose: 15.0 mg/kg/injection, schedule: Q01DX009 (ip), vehicle: saline with Tween-80) was 113 % of control; the T/C (dose: 30.0 mg/kg/injection, schedule: Q01DX009 (ip), vehicle: saline with Tween-80) was 105 % of control.
Consider `CC(=O)OC1C2OC3C=C(C)CCC3(CO)C(C)(C1OC(C)=O)C21CO1` (configuration not stated), for which the T/C by setting is: (dose: 0.5 mg/kg/injection, schedule: Q01DX009 (ip), vehicle: saline) 108 % of control; (dose: 1.0 mg/kg/injection, schedule: Q01DX009 (ip), vehicle: saline) 100 % of control; (dose: 2.0 mg/kg/injection, schedule: Q01DX009 (ip), vehicle: saline) 106 % of control.
In the case of `CCc1c(N2CCOCC2)c(C#N)c2nc3ccccc3n2c1N1CCOCC1`, the T/C was 99 % of control under setting [12]; 95 % of control under setting [13]; 98 % of control (dose: 240.0 mg/kg/injection, schedule: Q01DX005 (ip), vehicle: saline with Tween-80).
Turning to `COC1NC(=O)N(C)N(C)C1=O` (configuration not stated), the T/C under setting [14] is 100 % of control; the T/C (dose: 100.0 mg/kg/injection, schedule: Q01DX005 (ip), vehicle: saline) was 99 % of control; the T/C (dose: 200.0 mg/kg/injection, schedule: Q01DX005 (ip), vehicle: saline) is 100 % of control.
In the case of `Cc1ccc[n+](Cc2ccccc2Cl)c1`, the T/C (dose: 12.5 mg/kg/injection, schedule: Q01DX005 (ip), vehicle: Klucel (hydroxypropylcellulose) (HPC)) is 113 % of control; the T/C (dose: 25.0 mg/kg/injection, schedule: Q01DX005 (ip), vehicle: Klucel (hydroxypropylcellulose) (HPC)) was 113 % of control; the T/C under setting [4] is 101 % of control.
As to `COC(=O)CC1C=CCC2C(=O)C=C(OC)C(=O)C12C` (configuration not stated), the T/C by setting is: under setting [4], 103 % of control; under setting [5], 100 % of control; under setting [6], 100 % of control.
For `CN1CCCC2C(c3ccccc3)C(C3=NCCCC3)C(c3ccccc3)CC21` (configuration not stated), the T/C by setting is: (dose: 25.0 mg/kg/injection, schedule: Q01DX009 (ip), vehicle: saline with Tween-80) 100 % of control; under setting [10], 113 % of control; under setting [15], 100 % of control; under setting [11], 100 % of control; under setting [16], 104 % of control; under setting [17], 100 % of control.
Take `Cc1ccc(C(=O)/C(N)=C/c2ccccn2)cc1`: the T/C runs as follows: (dose: 100.0 mg/kg/injection, schedule: Q01DX001 (ip), vehicle: saline) 107 % of control; (dose: 200.0 mg/kg/injection, schedule: Q01DX001 (ip), vehicle: saline) 105 % of control; (dose: 400.0 mg/kg/injection, schedule: Q01DX001 (ip), vehicle: saline) 101 % of control.
Consider `CCc1ccnc(N=C2N=C(Nc3cc(CC)ccn3)c3ccccc32)c1`, for which the T/C is, setting by setting: under setting [15], 92 % of control; under setting [16], 97 % of control; under setting [18], 97 % of control.
For `C/C=C(\C)C(=O)O[C@@H]1c2cc3c(cc2-c2c(cc(OC)c(OC)c2OC)[C@@H]2C(=O)OC[C@@H]12)OCO3`, the T/C is 92 % of control (dose: 1.25 mg/kg/injection, schedule: Q01DX009 (ip), vehicle: Klucel (hydroxypropylcellulose) (HPC)); 111 % of control (dose: 2.5 mg/kg/injection, schedule: Q01DX009 (ip), vehicle: Klucel (hydroxypropylcellulose) (HPC)); 113 % of control (dose: 5.0 mg/kg/injection, schedule: Q01DX009 (ip), vehicle: Klucel (hydroxypropylcellulose) (HPC)); 103 % of control (dose: 10.0 mg/kg/injection, schedule: Q01DX009 (ip), vehicle: Klucel (hydroxypropylcellulose) (HPC)).
Regarding `O=C(O)Cc1c(-c2ccccc2)n[nH]c1-c1[nH]nc(-c2ccccc2)c1CC(=O)O`, the T/C under setting [1] is 95 % of control, the T/C under setting [2] was 95 % of control and the T/C under setting [3] was 104 % of control.
Consider `CC1=CC(C)(C)N(C)C(N)=N1`, for which the T/C runs as follows: (dose: 12.5 mg/kg/injection, schedule: Q01DX005 (ip), vehicle: saline) 100 % of control; (dose: 25.0 mg/kg/injection, schedule: Q01DX005 (ip), vehicle: saline) 91 % of control; under setting [14], 91 % of control.
In the case of `O=C(O)c1nn(-c2ccccc2)c2c1CS(=O)(=O)c1ccccc1-2`, the T/C was 100 % of control (dose: 100.0 mg/kg/injection, schedule: Q04DX002 (ip), vehicle: saline with Tween-80); 106 % of control (dose: 200.0 mg/kg/injection, schedule: Q04DX002 (ip), vehicle: saline with Tween-80); 104 % of control (dose: 400.0 mg/kg/injection, schedule: Q04DX002 (ip), vehicle: saline with Tween-80).
For the molecule `Nc1ncnc2c1c(C(=O)O)cn2C1OC(CO)C(O)C1O` (configuration not stated), the T/C is 120 % of control under setting [10], 118 % of control under setting [15] and 86 % of control under setting [16].
Turning to `C[Si](C)(C)/C=C1\OC=CC(c2ccccc2)O1` (configuration not stated), the T/C runs as follows: under setting [7], 99 % of control; under setting [8], 100 % of control; under setting [9], 103 % of control.
`COc1ccc(/C=N/N(C)C(=O)Nc2cccc(Cl)c2)cc1OC`: the T/C reads like this: under setting [15], 98 % of control; under setting [16], 98 % of control; under setting [18], 105 % of control.
Consider `Nc1ccn(C2OC(COP(=O)(O)O)C(O)C2O)c(=O)n1` (configuration not stated), for which the T/C is 150 % of control under setting [17]; 181 % of control (dose: 264.0 mg/kg/injection, schedule: Q04DX003 (ip), vehicle: saline with Tween-80); 166 % of control and 177 % of control (dose: 400.0 mg/kg/injection, schedule: Q04DX003 (ip), vehicle: saline with Tween-80); 209 % of control (dose: 600.0 mg/kg/injection, schedule: Q04DX003 (ip), vehicle: saline with Tween-80).
As to `NC(=O)N/N=C1\CCn2cccc21`, the T/C is 92 % of control under setting [12] and 95 % of control under setting [13].
